Test [1] relates to duodenal mucosal alkaline secretion. Kind of test: Test C: duodenal mucosal alkaline secretion assay in barbiturate-anaesthetised rats. In kind it is in vivo, rat. To be noted: co-administration with title compounds of the Examples. From the text: Duodenal Mucosal Alkaline Secretion Assay
Compounds were exposed to the duodenal mucosa in barbiturate-anaesthetised rats prepared for in situ titration of duodenal mucosal alkaline secretion, according to the methodology described by Flemström et al in Am. J. Physiol. (1982) 243, G348.

For a further test, the target named is T1, AT2 receptor (Sus scrofa, UniProt A0A4X1W622).
T1 sequence (A0A4X1W622 1-362): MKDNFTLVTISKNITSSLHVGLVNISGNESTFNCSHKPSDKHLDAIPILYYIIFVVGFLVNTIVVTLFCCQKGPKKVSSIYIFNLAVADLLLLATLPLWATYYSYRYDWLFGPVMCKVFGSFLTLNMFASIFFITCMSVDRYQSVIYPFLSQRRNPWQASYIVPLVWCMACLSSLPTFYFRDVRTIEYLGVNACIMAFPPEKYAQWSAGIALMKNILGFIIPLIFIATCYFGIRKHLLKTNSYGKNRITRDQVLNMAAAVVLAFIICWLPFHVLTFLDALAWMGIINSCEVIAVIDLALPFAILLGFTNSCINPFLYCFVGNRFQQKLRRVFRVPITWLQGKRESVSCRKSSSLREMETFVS
To be noted: read-out: dissociation constant (Kd), AT2 receptor; Scatchard analysis, porcine myometrial membranes, [L]=0.057 nM.

Description for AT2 receptor: Myometrial membranes were prepared from porcine uteri according to the method by Nielsen et al (Clin. Exp. Pharm. Phys. (1997) 24, 309). […] Samples were incubated at 25° C. for 1 h, and binding was terminated by filtration through Whatman GF/B glass-fiber filter sheets using a Brandel cell harvester. The filters were washed with 3×3 mL of Tris-HCl (pH 7.4) and transferred to tubes. The radioactivity was measured using a gamma counter. […] The binding data were best fitted with a one-site fit. All experiments were performed at least in triplicate.

In the case of `Cc1cc(Cn2cnc3c2C[C@@H](C(=O)O)N(C(=O)C(c2ccccc2)c2ccccc2)C3)ccc1N(C)C` [PD123319], the “effect of co-administration on the stimulation of mucosal alkalisation by the title compounds” value in test [1] is “blocked”.

Usually Kd stands for the constant that tells how readily two partners part at equilibrium. On to “Asp^1-Arg^2-Val^3-Tyr^4-Ile^5-His^6-Pro^7-Phe^8 [Ang II]”, for which the Kd on AT2 receptor came out at 0.7 ± 0.1 nM.
